Test: Solubility (saturated concentration) of cis-TMCD and trans-TMCD in various solvents, by gas chromatography
Assay type: physicochemical
Description: All concentrations were measured by gas chromatography. Water concentration was measured by Karl Fischer titrations.
The solubility of cis-TMCD and trans-TMCD in various solvents was determined by charging cis-TMCD, trans-TMCD, and the solvent or solvents of interest into a 120 ml jacketed glass vessel. The vessel was equipped with a stir bar in order to provide mixing and the jacket was used to control the temperature of the vessel contents. The vessel was equipped with charging and sampling ports on top of the vessel.
The slurry was allowed to stand for a time sufficient for the solids to saturate the solvent at the desired temperature. At that time, a sample of the solution was withdrawn from the cell using a fritted pipette so as to remove only the liquid phase. The sample was analyzed for cis-TMCD and trans-TMCD isomer content. These values represent the saturated concentration of each isomer at the sampling temperature.
After this, the cell contents were heated to the next desired temperature and the contents were held for another time interval sufficient to allow the slurry to equilibrate. A sample was then taken of the solution and analyzed. Following this procedure, solubility data was collected up to the final desired temperature.
The reported solubility of each isomer at a given temperature for a given solvent is expressed as a weight % relative to the saturated concentration of the isomer at the highest temperature reported for a given solvent.

CC1(C)[C@H](O)C(C)(C)[C@H]1O [trans-TMCD, trans-2,2,4,4-tetramethylcyclobutane-1,3-diol]
Relative solubility (2-Ethylhexanol, 0.7° C., relative to 89.8° C.): 11% relative wt % | Relative solubility (2-Ethylhexanol, 12.5° C., relative to 89.8° C.): 15% relative wt % | Relative solubility (2-Ethylhexanol, 24.7° C., relative to 89.8° C.): 20% relative wt % | Relative solubility (2-Ethylhexanol, 40.0° C., relative to 89.8° C.): 28% relative wt % | Relative solubility (2-Ethylhexanol, 49.9° C., relative to 89.8° C.): 36% relative wt % | Relative solubility (2-Ethylhexanol, 60.2° C., relative to 89.8° C.): 45% relative wt % | Relative solubility (2-Ethylhexanol, 69.3° C., relative to 89.8° C.): 57% relative wt % | Relative solubility (2-Ethylhexanol, 79.3° C., relative to 89.8° C.): 75% relative wt % | Relative solubility (2-Ethylhexanol, 89.8° C., relative to 89.8° C.): 100% relative wt % | Relative solubility (2-Ethylhexyl Acetate, 5.9° C., relative to 79.4° C.): 6% relative wt % | Relative solubility (2-Ethylhexyl Acetate, 15.5° C., relative to 79.4° C.): 9% relative wt % | Relative solubility (2-Ethylhexyl Acetate, 25.1° C., relative to 79.4° C.): 12% relative wt % | Relative solubility (2-Ethylhexyl Acetate, 40.5° C., relative to 79.4° C.): 22% relative wt % | Relative solubility (2-Ethylhexyl Acetate, 49.8° C., relative to 79.4° C.): 32% relative wt % | Relative solubility (2-Ethylhexyl Acetate, 49.9° C., relative to 79.4° C.): 33% relative wt % | Relative solubility (2-Ethylhexyl Acetate, 60.5° C., relative to 79.4° C.): 48% relative wt % | Relative solubility (2-Ethylhexyl Acetate, 70.3° C., relative to 79.4° C.): 74% relative wt % | Relative solubility (2-Ethylhexyl Acetate, 79.4° C., relative to 79.4° C.): 100% relative wt % | Relative solubility (2-Ethylhexyl Acetate, −5.0° C., relative to 79.4° C.): 4% relative wt % | Relative solubility (CHDM, 69.0° C., relative to 106.9° C.): 54% relative wt % | Relative solubility (CHDM, 79.2° C., relative to 106.9° C.): 74% relative wt % | Relative solubility (CHDM, 88.9° C., relative to 106.9° C.): 80% relative wt % | Relative solubility (CHDM, 95.6° C., relative to 106.9° C.): 91% relative wt % | Relative solubility (CHDM, 106.9° C., relative to 106.9° C.): 100% relative wt % | Relative solubility (Dimethyl Carbonate, 6.2° C., relative to 70.1° C.): 7% relative wt % | Relative solubility (Dimethyl Carbonate, 16.3° C., relative to 70.1° C.): 9% relative wt % | Relative solubility (Dimethyl Carbonate, 25.7° C., relative to 70.1° C.): 14% relative wt % | Relative solubility (Dimethyl Carbonate, 40.5° C., relative to 70.1° C.): 27% relative wt % | Relative solubility (Dimethyl Carbonate, 54.7° C., relative to 70.1° C.): 54% relative wt % | Relative solubility (Dimethyl Carbonate, 70.1° C., relative to 70.1° C.): 100% relative wt % | Relative solubility (Ethanol, 5.3° C., relative to 60.3° C.): 51% relative wt % | Relative solubility (Ethanol, 14.3° C., relative to 60.3° C.): 55% relative wt % | Relative solubility (Ethanol, 25.5° C., relative to 60.3° C.): 76% relative wt % | Relative solubility (Ethanol, 39.9° C., relative to 60.3° C.): 82% relative wt % | Relative solubility (Ethanol, 50.1° C., relative to 60.3° C.): 92% relative wt % | Relative solubility (Ethanol, 60.3° C., relative to 60.3° C.): 100% relative wt % | Relative solubility (Ethyl Acetate, 4.2° C., relative to 54.9° C.): 16% relative wt % | Relative solubility (Ethyl Acetate, 15.0° C., relative to 54.9° C.): 25% relative wt % | Relative solubility (Ethyl Acetate, 26.2° C., relative to 54.9° C.): 38% relative wt % | Relative solubility (Ethyl Acetate, 40.5° C., relative to 54.9° C.): 62% relative wt % | Relative solubility (Ethyl Acetate, 54.9° C., relative to 54.9° C.): 100% relative wt % | Relative solubility (Ethyl Acetate, −5.1° C., relative to 54.9° C.): 12% relative wt % | Relative solubility (Ethylene Glycol, 26.5° C., relative to 91.4° C.): 24% relative wt % | Relative solubility (Ethylene Glycol, 36.2° C., relative to 91.4° C.): 32% relative wt % | Relative solubility (Ethylene Glycol, 48.5° C., relative to 91.4° C.): 44% relative wt % | Relative solubility (Ethylene Glycol, 61.5° C., relative to 91.4° C.): 61% relative wt % | Relative solubility (Ethylene Glycol, 72.1° C., relative to 91.4° C.): 68% relative wt % | Relative solubility (Ethylene Glycol, 82.2° C., relative to 91.4° C.): 82% relative wt % | Relative solubility (Methanol, 16.9° C., relative to 41.3° C.): 82% relative wt % | Relative solubility (Methanol, 25.6° C., relative to 41.3° C.): 89% relative wt % | Relative solubility (Methanol, 41.3° C., relative to 41.3° C.): 100% relative wt % | Relative solubility (Methanol, −2.5° C., relative to 41.3° C.): 70% relative wt % | Relative solubility (Methyl Acetate, 5.9° C., relative to 49.8° C.): 14% relative wt % | Relative solubility (Methyl Acetate, 15.5° C., relative to 49.8° C.): 22% relative wt % | Relative solubility (Methyl Acetate, 25.1° C., relative to 49.8° C.): 33% relative wt % | Relative solubility (Methyl Acetate, 40.5° C., relative to 49.8° C.): 59% relative wt % | Relative solubility (Methyl Acetate, 49.8° C., relative to 49.8° C.): 100% relative wt % | Relative solubility (Methyl Acetate, −5.0° C., relative to 49.8° C.): 9% relative wt % | Relative solubility (Methyl i-Butyl Carbinol, 9.4° C., relative to 81.9° C.): 18% relative wt % | Relative solubility (Methyl i-Butyl Carbinol, 20.4° C., relative to 81.9° C.): 23% relative wt % | Relative solubility (Methyl i-Butyl Carbinol, 31.1° C., relative to 81.9° C.): 29% relative wt % | Relative solubility (Methyl i-Butyl Carbinol, 40.0° C., relative to 81.9° C.): 39% relative wt % | Relative solubility (Methyl i-Butyl Carbinol, 49.5° C., relative to 81.9° C.): 47% relative wt % | Relative solubility (Methyl i-Butyl Carbinol, 60.0° C., relative to 81.9° C.): 60% relative wt % | Relative solubility (Methyl i-Butyl Carbinol, 69.5° C., relative to 81.9° C.): 77% relative wt % | Relative solubility (Methyl i-Butyl Carbinol, 81.9° C., relative to 81.9° C.): 100% relative wt % | Relative solubility (i-Butyl Acetate, 4.8° C., relative to 90.1° C.): 6% relative wt % | Relative solubility (i-Butyl Acetate, 16.9° C., relative to 90.1° C.): 9% relative wt % | Relative solubility (i-Butyl Acetate, 25.6° C., relative to 90.1° C.): 12% relative wt % | Relative solubility (i-Butyl Acetate, 41.3° C., relative to 90.1° C.): 21% relative wt % | Relative solubility (i-Butyl Acetate, 56.2° C., relative to 90.1° C.): 36% relative wt % | Relative solubility (i-Butyl Acetate, 70.2° C., relative to 90.1° C.): 58% relative wt % | Relative solubility (i-Butyl Acetate, 90.1° C., relative to 90.1° C.): 100% relative wt % | Relative solubility (i-Butyl Acetate, −2.5° C., relative to 90.1° C.): 5% relative wt % | Relative solubility (n-Butanol, 5.9° C., relative to 60.5° C.): 44% relative wt % | Relative solubility (n-Butanol, 15.5° C., relative to 60.5° C.): 49% relative wt % | Relative solubility (n-Butanol, 25.1° C., relative to 60.5° C.): 58% relative wt % | Relative solubility (n-Butanol, 40.5° C., relative to 60.5° C.): 72% relative wt % | Relative solubility (n-Butanol, 49.8° C., relative to 60.5° C.): 86% relative wt % | Relative solubility (n-Butanol, 49.9° C., relative to 60.5° C.): 86% relative wt % | Relative solubility (n-Butanol, 60.5° C., relative to 60.5° C.): 100% relative wt % | Relative solubility (n-Butanol, −5.0° C., relative to 60.5° C.): 39% relative wt % | Relative solubility (n-Butyl Propionate, 6.5° C., relative to 91.9° C.): 5% relative wt % | Relative solubility (n-Butyl Propionate, 16.8° C., relative to 91.9° C.): 8% relative wt % | Relative solubility (n-Butyl Propionate, 27.7° C., relative to 91.9° C.): 13% relative wt % | Relative solubility (n-Butyl Propionate, 41.7° C. (sample 4), relative to 91.9° C.): 16% relative wt % | Relative solubility (n-Butyl Propionate, 41.7° C. (sample 5), relative to 91.9° C.): 22% relative wt % | Relative solubility (n-Butyl Propionate, 52.0° C., relative to 91.9° C.): 32% relative wt % | Relative solubility (n-Butyl Propionate, 61.5° C., relative to 91.9° C.): 44% relative wt % | Relative solubility (n-Butyl Propionate, 69.1° C., relative to 91.9° C.): 59% relative wt % | Relative solubility (n-Butyl Propionate, 80.7° C., relative to 91.9° C.): 78% relative wt % | Relative solubility (n-Butyl Propionate, 91.9° C., relative to 91.9° C.): 100% relative wt % | Relative solubility (n-Propyl Propionate, 7.0° C., relative to 72.2° C.): 11% relative wt % | Relative solubility (n-Propyl Propionate, 17.1° C., relative to 72.2° C.): 15% relative wt % | Relative solubility (n-Propyl Propionate, 26.7° C., relative to 72.2° C.): 22% relative wt % | Relative solubility (n-Propyl Propionate, 37.4° C., relative to 72.2° C.): 29% relative wt % | Relative solubility (n-Propyl Propionate, 42.4° C., relative to 72.2° C.): 37% relative wt % | Relative solubility (n-Propyl Propionate, 52.2° C., relative to 72.2° C.): 53% relative wt % | Relative solubility (n-Propyl Propionate, 62.9° C., relative to 72.2° C.): 76% relative wt % | Relative solubility (n-Propyl Propionate, 72.2° C., relative to 72.2° C.): 100% relative wt %
